According to patent US20230072683A1, “PYRIDO-PYRIMIDIN DERIVATIVES AND PHARMACEUTICAL COMPOSITION, FOR USE IN PREVENTING OR TREATING PI3 KINASE RELATED DISEASES, COMPRISING SAME AS ACTIVE INGREDIENT” (BORYUNG PHARMACEUTICAL CO., LTD, priority 2019, published 2023):
Each block holds one compound with its values, some of them ahead of it.

Columns and labels:
DNA-PK(h) = DNA-PK(h) (Homo sapiens, UniProt P78527); experiment: Evaluation of inhibitory activity against DNA-PK (HTRF kinase assay, GST-cMyc-p53 substrate); type: biochemical; details: compound concentration 0.01 μM; read-out: EXP_VALUE(% Inhibition) DNA-PK(h) 0.01 μM
Procedure: <Experimental Example 2> Evaluation of Inhibitory Activity Properties Against DNA-PK
The following experiments were performed to verify the inhibitory activity against DNA-PK with regard to each of the compounds of Examples 1 to 441 according to the present invention.
DNA-PK(h) was subjected to an isothermal treatment in an assay buffer comprising […] GST-cMyc-p53 and Mg/ATP (at a concentration as required). The reaction was initiated by the addition of a Mg/ATP mixture, and after incubation for 30 minutes at room temperature, a stop solution comprising EDTA was added to stop the reaction. A detection buffer comprising d2-labelled anti-GST monoclonal antibody and Europium-labelled anti-phospho Ser15 antibody for phosphorylated p53 was added. A plate was read in a time-resolved fluorescence mode and a homogeneous time-resolved fluorescence (HTRF) signal was determined according to HTRF=10000×(Em 665 nm/Em 620 nm).

[1] = target: PI3K-δ (PI3K(p1108/p857) (h)) (Homo sapiens, UniProt O00329); experiment: Evaluation of inhibitory activity against PI3K-δ (HTRF kinase assay); type: biochemical; details: compound concentration 0.01 μM; read-out: EXP_VALUE(% Inhibition) PI3K-δ 0.01 μM
Chain of PI3K-δ (PI3K(p1108/p857) (h)) (O00329 whole entry): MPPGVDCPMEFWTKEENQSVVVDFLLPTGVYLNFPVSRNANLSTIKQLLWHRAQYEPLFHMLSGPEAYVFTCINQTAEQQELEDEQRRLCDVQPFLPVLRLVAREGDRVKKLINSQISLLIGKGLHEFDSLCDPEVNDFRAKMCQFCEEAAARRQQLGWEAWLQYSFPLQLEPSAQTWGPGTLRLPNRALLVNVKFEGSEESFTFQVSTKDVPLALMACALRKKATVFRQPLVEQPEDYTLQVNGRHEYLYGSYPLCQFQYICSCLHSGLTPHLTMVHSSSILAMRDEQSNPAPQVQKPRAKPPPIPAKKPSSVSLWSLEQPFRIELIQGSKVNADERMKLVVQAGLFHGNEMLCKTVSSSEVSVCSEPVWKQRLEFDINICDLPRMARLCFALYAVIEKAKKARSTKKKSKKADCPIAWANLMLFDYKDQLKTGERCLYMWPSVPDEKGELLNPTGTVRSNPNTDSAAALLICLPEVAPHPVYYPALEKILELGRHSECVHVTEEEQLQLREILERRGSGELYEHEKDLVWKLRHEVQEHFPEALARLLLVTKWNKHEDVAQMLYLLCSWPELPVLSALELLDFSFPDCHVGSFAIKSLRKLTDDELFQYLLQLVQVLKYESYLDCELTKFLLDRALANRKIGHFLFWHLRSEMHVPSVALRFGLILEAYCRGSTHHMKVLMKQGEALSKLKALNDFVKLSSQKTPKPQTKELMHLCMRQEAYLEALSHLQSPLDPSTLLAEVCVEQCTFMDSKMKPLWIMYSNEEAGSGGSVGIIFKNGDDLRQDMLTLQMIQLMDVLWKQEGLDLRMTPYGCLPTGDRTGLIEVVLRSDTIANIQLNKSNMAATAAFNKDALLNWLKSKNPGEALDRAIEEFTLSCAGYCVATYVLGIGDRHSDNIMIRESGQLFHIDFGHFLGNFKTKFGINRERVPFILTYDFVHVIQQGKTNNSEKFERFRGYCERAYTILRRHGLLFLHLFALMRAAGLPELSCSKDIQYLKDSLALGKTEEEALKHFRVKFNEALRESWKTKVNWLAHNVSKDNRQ
Chain of PI3K-δ (PI3K(p1108/p857) (h)) (P27986 whole entry partner): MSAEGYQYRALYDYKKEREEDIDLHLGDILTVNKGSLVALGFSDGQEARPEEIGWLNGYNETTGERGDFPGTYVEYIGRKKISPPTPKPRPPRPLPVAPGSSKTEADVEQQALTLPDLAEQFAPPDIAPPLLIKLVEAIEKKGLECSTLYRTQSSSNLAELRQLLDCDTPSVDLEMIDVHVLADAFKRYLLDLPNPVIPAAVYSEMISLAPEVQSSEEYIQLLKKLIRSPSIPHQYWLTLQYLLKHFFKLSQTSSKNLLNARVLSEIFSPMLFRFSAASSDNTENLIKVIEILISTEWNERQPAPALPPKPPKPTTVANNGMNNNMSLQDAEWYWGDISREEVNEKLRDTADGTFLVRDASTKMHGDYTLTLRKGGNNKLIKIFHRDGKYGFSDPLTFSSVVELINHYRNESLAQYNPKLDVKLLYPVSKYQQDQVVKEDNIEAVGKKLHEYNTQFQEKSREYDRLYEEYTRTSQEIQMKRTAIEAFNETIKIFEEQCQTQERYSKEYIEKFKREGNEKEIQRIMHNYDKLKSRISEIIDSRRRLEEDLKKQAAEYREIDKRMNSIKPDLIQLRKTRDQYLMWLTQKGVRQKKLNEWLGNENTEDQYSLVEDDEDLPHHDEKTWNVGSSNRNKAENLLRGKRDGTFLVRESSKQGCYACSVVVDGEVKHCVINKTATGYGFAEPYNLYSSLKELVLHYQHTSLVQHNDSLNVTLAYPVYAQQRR
Procedure: <Experimental Example 1> Evaluation of Inhibitory Activity Properties Against PI3K-δ
The following experiments were performed to verify the inhibitory activity against PI3K-δ with regard to each of the compounds of Examples 1 to 441 according to the present invention.
PI3K(p1108/p857) (h) was incubated in assay buffer comprising 10 μM phosphatidylinositol-4,5-bisphosphate and Mg/ATP (at a concentration as required). The reaction was initiated by the addition of a Mg/ATP mixture, and after incubation for 30 minutes at room temperature, a stop solution comprising EDTA and phosphatidylinositol-3,4,5-triphosphate was added to stop the reaction and carry out biotinylation.
A detection buffer comprising Eu (europium)-labelled anti-GST monoclonal antibody, GST-tagged GRP1 PH domain and streptavidin-allophycocyanin was added. A plate was read in a time-resolved fluorescence mode and a homogeneous time-resolved fluorescence (HTRF) signal was determined according to HTRF=10000×(Em 665 nm/Em 620 nm).

inhibition at 0.01 µM (DNA-PK(h)): 57% | inhibition at 0.01 µM [1]: 47%
Compound: C[C@H](Nc1ncnc2[nH]ccc(=O)c12)c1c(Cl)c2cccc(-c3cnc(CC#N)nc3)c2c(=O)n1-c1ccccc1 [Example 39, (S)-2-(5-(4-chloro-1-oxo-3-(1-((5-oxo-5,8-dihydropyrido[2,3-d]pyrimidin-4-yl)amino)ethyl)-2-phenyl-1,2-dihydroisoquinolin-8-yl)pyrimidin-2-yl)acetonitrile]

inhibition at 0.01 µM (DNA-PK(h)): 61% | inhibition at 0.01 µM [1]: 67%
Compound: C[C@H](Nc1ncnc2[nH]ccc(=O)c12)c1c(Cl)c2cccc(-c3cnc4nncn4c3)c2c(=O)n1-c1ccccc1 [Example 40, (S)-4-((1-(8-([1,2,4]triazolo[4,3-a]pyrimidin-6-yl)-4-chloro-1-oxo-2-phenyl-1,2-dihydroisoquinolin-3-yl)ethyl)amino)pyrido[2,3-d]pyrimidin-5(8H)-one]

inhibition at 0.01 µM (DNA-PK(h)): 43% | inhibition at 0.01 µM [1]: 79%
Compound: C[C@H](Nc1ncnc2[nH]ccc(=O)c12)c1c(Cl)c2cccc(-c3cnc(C#N)nc3)c2c(=O)n1-c1ccccc1 [Example 44, (S)-5-(4-chloro-1-oxo-3-(1-((5-oxo-5,8-dihydropyrido[2,3-d]pyrimidin-4-yl)amino)ethyl)-2-phenyl-1,2-dihydroisoquinolin-8-yl)pyrimidine-2-carbonitrile]

inhibition at 0.01 µM (DNA-PK(h)): 53% | inhibition at 0.01 µM [1]: 96%
Compound: C[C@H](Nc1ncnc2[nH]ccc(=O)c12)c1c(Cl)c2cccc(-c3cc(O)ncn3)c2c(=O)n1-c1ccccc1 [Example 50, (S)-4-((1-(4-chloro-8-(6-hydroxypyrimidin-4-yl)-1-oxo-2-phenyl-1,2-dihydroisoquinolin-3-yl)ethyl)amino)pyrido[2,3-d]pyrimidin-5(8H)-one]

inhibition at 0.01 µM (DNA-PK(h)): -3% | inhibition at 0.01 µM [1]: 11%
Compound: C[C@H](Nc1ncnc2[nH]ccc(=O)c12)c1c(Cl)c2cccc(-c3ncc(F)cn3)c2c(=O)n1-c1ccccc1 [Example 53, (S)-4-((1-(4-chloro-8-(5-fluoropyrimidin-2-yl)-1-oxo-2-phenyl-1,2-dihydroisoquinolin-3-yl)ethyl)amino)pyrido[2,3-d]pyrimidin-5(8H)-one]

inhibition at 0.01 µM (DNA-PK(h)): 42% | inhibition at 0.01 µM [1]: 55%
Compound: C[C@H](Nc1ncnc2[nH]ccc(=O)c12)c1c(Cl)c2cccc(-c3cnc(C4CCC4)nc3)c2c(=O)n1-c1ccccc1 [Example 54, (S)-4-((1-(4-chloro-8-(2-cyclobutylpyrimidin-5-yl)-1-oxo-2-phenyl-1,2-dihydroisoquinolin-3-yl)ethyl)amino)pyrido[2,3-d]pyrimidin-5(8H)-one]

inhibition at 0.01 µM (DNA-PK(h)): 44% | inhibition at 0.01 µM [1]: 59%
Compound: COCc1ncc(-c2cccc3c(Cl)c([C@H](C)Nc4ncnc5[nH]ccc(=O)c45)n(-c4ccccc4)c(=O)c23)cn1 [Example 55, (S)-4-((1-(4-chloro-8-(2-(methoxymethyl)pyrimidin-5-yl)-1-oxo-2-phenyl-1,2-dihydroisoquinolin-3-yl)ethyl)amino)pyrido[2,3-d]pyrimidin-5(8H)-one]

inhibition at 0.01 µM (DNA-PK(h)): 78% | inhibition at 0.01 µM [1]: 81%
Compound: C[C@H](Nc1ncnc2[nH]ccc(=O)c12)c1c(Cl)c2cccc(-c3cnc(N)nc3)c2c(=O)n1-c1ccccc1 [Example 56, (S)-4-((1-(8-(2-aminopyrimidin-5-yl)-4-chloro-1-oxo-2-phenyl-1,2-dihydroisoquinolin-3-yl)ethyl)amino)pyrido[2,3-d]pyrimidin-5(8H)-one]

Continued, compound first:

Compound: C[C@H](Nc1ncnc2[nH]ccc(=O)c12)c1c(Cl)c2cccc(-c3ccc4nncn4c3)c2c(=O)n1-c1ccccc1 [Example 37, (S)-4-((1-(8-([1,2,4]triazolo[4,3-a]pyridin-6-yl)-4-chloro-1-oxo-2-phenyl-1,2-dihydroisoquinolin-3-yl)ethyl)amino)pyrido[2,3-d]pyrimidin-5(8H)-one]
inhibition at 0.01 µM (DNA-PK(h)): 60% | inhibition at 0.01 µM [1]: 89%

Compound: C[C@H](Nc1ncnc2[nH]ccc(=O)c12)c1c(Cl)c2ccccc2c(=O)n1-c1ccccc1 [Example 38, (S)-4-((1-(4-chloro-1-oxo-2-phenyl-1,2-dihydroisoquinolin-3-yl)ethyl)amino)pyrido[2,3-d]pyrimidin-5(8H)-one]
inhibition at 0.01 µM (DNA-PK(h)): 46% | inhibition at 0.01 µM [1]: 71%

Compound: COc1ccc(-c2cccc3c(Cl)c([C@H](C)Nc4ncnc5[nH]ccc(=O)c45)n(-c4ccccc4)c(=O)c23)nc1 [Example 41, (S)-4-((1-(4-chloro-8-(5-methoxypyridin-2-yl)-1-oxo-2-phenyl-1,2-dihydroisoquinolin-3-yl)ethyl)amino)pyrido[2,3-d]pyrimidin-5(8H)-one]
inhibition at 0.01 µM (DNA-PK(h)): 79% | inhibition at 0.01 µM [1]: 89%

Compound: C[C@H](Nc1ncnc2[nH]ccc(=O)c12)c1c(Cl)c2cccc(-c3ccc4ncnn4c3)c2c(=O)n1-c1ccccc1 [Example 42, (S)-4-((1-(8-([1,2,4]triazolo[1,5-a]pyridin-6-yl)-4-chloro-1-oxo-2-phenyl-1,2-dihydroisoquinolin-3-yl)ethyl)amino)pyrido[2,3-d]pyrimidin-5(8H)-one]
inhibition at 0.01 µM (DNA-PK(h)): 76% | inhibition at 0.01 µM [1]: 89%

Compound: COc1cnc(-n2ccc(=O)c3c(N[C@@H](C)c4c(Cl)c5ccccc5c(=O)n4-c4ccccc4)ncnc32)nc1 [Example 43, (S)-4-((1-(4-chloro-1-oxo-2-phenyl-1,2-dihydroisoquinolin-3-yl)ethyl)amino)-8-(5-methoxypyrimidin-2-yl)pyrido[2,3-d]pyrimidin-5(8H)-one]
inhibition at 0.01 µM (DNA-PK(h)): 3% | inhibition at 0.01 µM [1]: 9%

Compound: COc1cc(-c2cccc3c(Cl)c([C@H](C)Nc4ncnc5[nH]ccc(=O)c45)n(-c4ccccc4)c(=O)c23)ncn1 [Example 45, (S)-4-((1-(4-chloro-8-(6-methoxypyrimidin-4-yl)-1-oxo-2-phenyl-1,2-dihydroisoquinolin-3-yl)ethyl)amino)pyrido[2,3-d]pyrimidin-5(8H)-one]
inhibition at 0.01 µM (DNA-PK(h)): 2% | inhibition at 0.01 µM [1]: 10%

Compound: C[C@H](Nc1ncnc2[nH]ccc(=O)c12)c1c(Cl)c2cccc(-c3ccc(C4CC4)nc3)c2c(=O)n1-c1ccccc1 [Example 46, (S)-4-((1-(4-chloro-8-(6-cyclopropylpyridin-3-yl)-1-oxo-2-phenyl-1,2-dihydroisoquinolin-3-yl)ethyl)amino)pyrido[2,3-d]pyrimidin-5(8H)-one]
inhibition at 0.01 µM (DNA-PK(h)): 27% | inhibition at 0.01 µM [1]: 42%

Compound: C[C@H](Nc1ncnc2[nH]ccc(=O)c12)c1c(Cl)c2cccc(-c3ccc(C(=O)O)nc3)c2c(=O)n1-c1ccccc1 [Example 47, (S)-5-(4-chloro-1-oxo-3-(1-((5-oxo-5,8-dihydropyrido[2,3-d]pyrimidin-4-yl)amino)ethyl)-2-phenyl-1,2-dihydroisoquinolin-8-yl)picolinic acid]
inhibition at 0.01 µM (DNA-PK(h)): 48% | inhibition at 0.01 µM [1]: 86%

Compound: C[C@H](Nc1ncnc2[nH]ccc(=O)c12)c1c(Cl)c2cccc(-c3cnc4ccccc4n3)c2c(=O)n1-c1ccccc1 [Example 48, (S)-4-((1-(4-chloro-1-oxo-2-phenyl-8-(quinoxalin-2-yl)-1,2-dihydroisoquinolin-3-yl)ethyl)amino)pyrido[2,3-d]pyrimidin-5(8H)-one]
inhibition at 0.01 µM (DNA-PK(h)): -5% | inhibition at 0.01 µM [1]: 7%

Compound: COc1cc(-c2cccc3c(Cl)c([C@H](C)Nc4ncnc5[nH]ccc(=O)c45)n(-c4ccccc4)c(=O)c23)nc(OC)n1 [Example 49, (S)-4-((1-(4-chloro-8-(2,6-dimethoxypyrimidin-4-yl)-1-oxo-2-phenyl-1,2-dihydroisoquinolin-3-yl)ethyl)amino)pyrido[2,3-d]pyrimidin-5(8H)-one]
inhibition at 0.01 µM (DNA-PK(h)): -3% | inhibition at 0.01 µM [1]: 23%

Compound: C[C@H](Nc1ncnc2[nH]ccc(=O)c12)c1c(Cl)c2cccc(-c3cnc(C(F)(F)F)cn3)c2c(=O)n1-c1ccccc1 [Example 51, (S)-4-((1-(4-chloro-1-oxo-2-phenyl-8-(5-(trifluoromethyl)pyrazin-2-yl)-1,2-dihydroisoquinolin-3-yl)ethyl)amino)pyrido[2,3-d]pyrimidin-5(8H)-one]
inhibition at 0.01 µM (DNA-PK(h)): -15% | inhibition at 0.01 µM [1]: 6%

Compound: C[C@H](Nc1ncnc2[nH]ccc(=O)c12)c1c(Cl)c2cccc(-c3ncc(C(F)(F)F)cn3)c2c(=O)n1-c1ccccc1 [Example 52, (S)-4-((1-(4-chloro-1-oxo-2-phenyl-8-(5-(trifluoromethyl)pyrimidin-2-yl)-1,2-dihydroisoquinolin-3-yl)ethyl)amino)pyrido[2,3-d]pyrimidin-5(8H)-one]
inhibition at 0.01 µM (DNA-PK(h)): -2% | inhibition at 0.01 µM [1]: 13%

Compound: CC(O)c1ccc(-c2cccc3c(Cl)c([C@H](C)Nc4ncnc5[nH]ccc(=O)c45)n(-c4ccccc4)c(=O)c23)cc1 (stereo partly drawn) [Example 57, 4-(((1S)-1-(4-chloro-8-(4-(1-hydroxyethyl)phenyl)-1-oxo-2-phenyl-1,2-dihydroisoquinolin-3-yl)ethyl)amino)pyrido[2,3-d]pyrimidin-5(8H)-one]
inhibition at 0.01 µM (DNA-PK(h)): 80% | inhibition at 0.01 µM [1]: 97%
